Data as given in patent US9464076B2, “Benzothiophene derivative” (Daiichi Sankyo Company, Limited, priority 2013, dated 2016).
Structures can show the parent of a compound that is named as a salt.

Molecular target: PDE10A (Homo sapiens (Human), UniProt Q9Y233)
Assay: Measurement of PDE10A inhibitory activity-2 (PDE10A fraction prepared from MOLT-4 cells)
Type: biochemical
Conditions: PDE10A fraction from MOLT-4 cells (peak around 250 mM NaCl)
Protocol: A human acute lymphoblastic lymphoma T cell line MOLT-4 (which can be purchased under ATCC No. CRL-1582 from ATCC) was cultured in an RPMI1640 medium containing 10% fetal bovine serum to obtain 5×10^8 MOLT-4 cells. The cells were recovered by centrifugation and suspended in 10 ml of buffer solution A (25 mM Tris-HCl, 5 mM 2-mercaptoethanol, 2 mM benzamidine, 2 mM EDTA, and 0.1 mM 4-(2-aminoethyl)benzenesulfonyl hydrochloride, pH 7.5). The cells were homogenized using a Polytron homogenizer and centrifuged (4° C., 25,000 g, 10 minutes). Then, the supernatant was further ultracentrifuged (4° C., 100,000 g, 60 minutes). The obtained supernatant was filtered through a 0.2 μm filter to obtain a soluble fraction.
HiTrap Q HP column (5 ml×2, GE Healthcare Japan Corp.) equilibrated with buffer solution A was charged with the obtained soluble fraction. Phosphodiesterase was eluted with 300 ml of buffer solution A containing a linear gradient solution of 0 to 0.8 M NaCl to recover sixty 5-ml fractions. Each fraction was tested for cAMP-metabolizing phosphodiesterase activity.
On the other hand, total RNA was prepared from Jurkat cells, one type of human T cell, and similarly subjected to RT-PCR. […] Eur J Biochem. 1999, 266 (3), 1118-2 has reported that PDE10A from the rat striatum and testis is eluted as an active peak centered around 250 mM NaCl.
For these reasons, this fraction was used as a solution for the evaluation of PDE10A inhibitory activity. The obtained solution was used to calculate the inhibitory activity (IC50) of a test compound in the same way as in the aforementioned test.

Chain of PDE10A (Q9Y233 whole entry): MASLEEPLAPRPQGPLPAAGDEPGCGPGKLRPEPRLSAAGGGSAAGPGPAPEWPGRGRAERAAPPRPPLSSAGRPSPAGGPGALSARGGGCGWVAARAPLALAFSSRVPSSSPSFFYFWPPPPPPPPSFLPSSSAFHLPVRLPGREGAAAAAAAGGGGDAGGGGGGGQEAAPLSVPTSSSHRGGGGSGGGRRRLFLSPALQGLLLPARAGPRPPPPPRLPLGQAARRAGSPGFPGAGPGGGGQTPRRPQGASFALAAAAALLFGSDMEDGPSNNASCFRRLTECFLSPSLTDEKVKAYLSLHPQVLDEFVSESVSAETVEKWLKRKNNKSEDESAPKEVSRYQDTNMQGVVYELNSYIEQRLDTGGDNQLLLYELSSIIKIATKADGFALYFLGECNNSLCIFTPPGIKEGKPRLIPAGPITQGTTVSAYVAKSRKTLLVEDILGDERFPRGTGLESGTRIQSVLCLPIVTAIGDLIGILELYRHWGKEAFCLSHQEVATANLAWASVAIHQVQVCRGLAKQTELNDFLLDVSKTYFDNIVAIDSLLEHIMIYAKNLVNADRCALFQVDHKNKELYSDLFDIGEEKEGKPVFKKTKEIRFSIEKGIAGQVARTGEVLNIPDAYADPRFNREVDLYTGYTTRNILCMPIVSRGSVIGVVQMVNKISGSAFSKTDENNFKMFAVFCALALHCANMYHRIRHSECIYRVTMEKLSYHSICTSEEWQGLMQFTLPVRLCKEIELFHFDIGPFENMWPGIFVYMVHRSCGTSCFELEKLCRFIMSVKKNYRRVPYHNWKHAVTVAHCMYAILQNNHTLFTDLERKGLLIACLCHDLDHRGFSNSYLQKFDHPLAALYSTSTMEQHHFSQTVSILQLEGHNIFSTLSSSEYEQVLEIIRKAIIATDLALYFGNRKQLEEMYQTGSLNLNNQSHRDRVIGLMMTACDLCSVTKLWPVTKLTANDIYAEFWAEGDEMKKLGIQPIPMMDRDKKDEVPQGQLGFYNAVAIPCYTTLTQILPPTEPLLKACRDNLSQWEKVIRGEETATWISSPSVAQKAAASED

Row | SMILES | IC50 [nM]
1 | CCC(=O)c1ccc(C(C)=O)c2sc(C(=O)Nc3cc(C(C)(C)O)c4ccccc4n3)c(C)c12 [Example 10, 7-Acetyl-N-(4-(2-hydroxypropan-2-yl)quinolin-2-yl)-3-methyl-4-propionylbenzo[b]thiophene-2-carboxamide] | 20
2 | CC(=O)c1ccc(C(C)=O)c2c(C)c(C(=O)Nc3cc(C(C)O)c4ccccc4n3)sc12 (stereo not shown) [Example 13, 4,7-Diacetyl-N-(4-(1-hydroxyethyl)quinolin-2-yl)-3-methylbenzo[b]thiophene-2-carboxamide] | 2
3 | COC(C)c1ccc(C(C)=O)c2sc(C(=O)Nc3cc(C(C)(C)O)c4ccccc4n3)c(C)c12 (stereo not shown) [Example 32, 7-Acetyl-N-(4-(2-hydroxypropan-2-yl)quinolin-2-yl)-4-(1-methoxyethyl)-3-methylbenzo[b]thiophene-2-carboxamide] | 9.1
4 | CC(=O)c1ccc(C(C)=O)c2sc(C(=O)Nc3cc(C(C)(C)O)c4ccccc4n3)cc12 [Example 8, 4,7-Diacetyl-N-(4-(2-hydroxypropan-2-yl)quinolin-2-yl)benzo[b]thiophene-2-carboxamide] | 12
5 | CCCCC(=O)c1cccc2c(C)c(C(=O)Nc3cc(C(C)(C)O)c4ccccc4n3)sc12 [Example 20, N-(4-(2-Hydroxypropan-2-yl)quinolin-2-yl)-3-methyl-7-pentanoylbenzo[b]thiophene-2-carboxamide] | 10
6 | Cc1c(C(=O)Nc2cc(C(C)(C)O)c3ccccc3n2)sc2c(C(=O)C3CC3)cccc12 [Example 19, 7-(Cyclopropylcarbonyl)-N-(4-(2-hydroxypropan-2-yl)quinolin-2-yl)-3-methylbenzo[b]thiophene-2-carboxamide] | 0.92
7 | CCc1c(C(=O)Nc2cc(C(C)(C)O)c3ccccc3n2)sc2c(C(C)=O)ccc(C(C)=O)c12 [Example 7, 4,7-Diacetyl-3-ethyl-N-(4-(2-hydroxypropan-2-yl)quinolin-2-yl)benzo[b]thiophene-2-carboxamide] | 5
8 | Cc1c(C(=O)Nc2cc(C(C)(C)O)c3ccccc3n2)sc2c(C(=O)C(C)C)cccc12 [Example 18, N-(4-(2-Hydroxypropan-2-yl)quinolin-2-yl)-7-isobutyryl-3-methylbenzo[b]thiophene-2-carboxamide] | 0.47
9 | Cc1c(C(=O)Nc2cc(C(C)(C)O)c3ccccc3n2)sc2c(C(=O)CC(C)C)cccc12 [Example 23, N-(4-(2-Hydroxypropan-2-yl)quinolin-2-yl)-3-methyl-7-(3-methylbutanoyl)benzo[b]thiophene-2-carboxamide] | 10
10 | COc1cc(NC(=O)c2sc3c(C(C)=O)ccc(C(C)=O)c3c2C)nc2ccccc12 [Example 12, 4,7-Diacetyl-N-(4-methoxyquinolin-2-yl)-3-methylbenzo[b]thiophene-2-carboxamide] | 4.4
11 | CC(=O)c1ccc(C(C)=O)c2c(C)c(C(=O)Nc3cc(C)c4ccccc4n3)sc12 [Example 11, 4,7-Diacetyl-3-methyl-N-(4-methylquinolin-2-yl)benzo[b]thiophene-2-carboxamide] | 2.2
12 | [2H]C([2H])([2H])OC1CN(C(=O)c2cccc3nc(NC(=O)c4sc5c(C(C)=O)ccc(COC)c5c4C)ccc23)C1 [Example 122, 7-Acetyl-N-(5-((3-(^2H3)methoxyazetidin-1-yl)carbonyl)quinolin-2-yl)-4-(methoxymethyl)-3-methylbenzo[b]thiophene-2-carboxamide] | 0.29
13 | CC(=O)c1ccc(C(C)=O)c2c(C)c(C(=O)Nc3cc(C(C)(C)O)c4ccccc4n3)sc12 [Example 2, 4,7-Diacetyl-N-(4-(2-hydroxypropan-2-yl)quinolin-2-yl)-3-methylbenzo[b]thiophene-2-carboxamide] | 2.6
14 | COCc1ccc(C(C)=O)c2sc(C(=O)Nc3ccc4c(C(=O)N5CC(F)(F)C5)cccc4n3)c(C)c12 [Example 100, 7-Acetyl-N-(5-((3,3-difluoroazetidin-1-yl)carbonyl)quinolin-2-yl)-4-(methoxymethyl)-3-methylbenzo[b]thiophene-2-carboxamide] | 0.42
15 | CC(=O)c1ccc(C(C)=O)c2c(C)c(C(=O)Nc3ccc4ccccc4n3)sc12 [Example 1, 4,7-Diacetyl-3-methyl-N-(quinolin-2-yl)benzo[b]thiophene-2-carboxamide] | 1.6

Second part, the compound after the results:

Row | IC50 [nM] | SMILES
16 | 3 | CCOCc1ccc(C(C)=O)c2sc(C(=O)Nc3cc(C(C)(C)O)c4ccccc4n3)c(C)c12 [Example 29, 7-Acetyl-4-(ethoxymethyl)-N-(4-(2-hydroxypropan-2-yl)quinolin-2-yl)-3-methylbenzo[b]thiophene-2-carboxamide]
17 | 2.9 | COCc1ccc(C(C)=O)c2sc(C(=O)Nc3cc(CN4CCNCC4)c4ccccc4n3)c(C)c12 [Example 124, 7-Acetyl-4-(methoxymethyl)-3-methyl-N-(4-(piperazin-1-ylmethyl)quinolin-2-yl)benzo[b]thiophene-2-carboxamide]
18 | 18 | COCc1ccc(C(C)=O)c2sc(C(=O)Nc3cc(Cl)c4ccccc4n3)c(C)c12 [Example 53, 7-Acetyl-N-(4-chloroquinolin-2-yl)-4-(methoxymethyl)-3-methylbenzo[b]thiophene-2-carboxamide]
19 | 0.86 | COCc1ccc(C(C)=O)c2sc(C(=O)Nc3ccc4c(COC(C)=O)cccc4n3)c(C)c12 [Example 83, (2-(7-Acetyl-4-(methoxymethyl)-3-methylbenzo[b]thiophene-2-carboxamido)quinolin-5-yl)methylacetate]
20 | 0.21 | COCc1ccc(C(C)=O)c2sc(C(=O)Nc3ccc4c(C(=O)N5CCC5)cccc4n3)c(C)c12 [Example 98, 7-Acetyl-N-(5-((azetidin-1-yl)carbonyl)quinolin-2-yl)-4-(methoxymethyl)-3-methylbenzo[b]thiophene-2-carboxamide]
21 | 0.5 | COCc1ccc(C(C)=O)c2sc(C(=O)Nc3cc(CN4CCCC(O)C4)c4ccccc4n3)c(C)c12 (stereo not shown) [Example 37, 7-Acetyl-N-(4-((3-hydroxypiperidin-1-yl)methyl)quinolin-2-yl)-4-(methoxymethyl)-3-methylbenzo[b]thiophene-2-carboxamide]
22 | 0.085 | COCc1ccc(C(=O)C(C)(C)C)c2sc(C(=O)Nc3cc(CN4CC[C@@H](O)C4)c4ccccc4n3)c(C)c12 [Example 58, (R)—N-(4-((3-Hydroxypyrrolidin-1-yl)methyl)quinolin-2-yl)-4-(methoxymethyl)-3-methyl-7-pivaloylbenzo[b]thiophene-2-carboxamide dihydrochloride]
23 | 0.12 | COCc1cccc2nc(NC(=O)c3sc4c(C(C)=O)ccc(CO)c4c3C)ccc12 [Example 113, 7-Acetyl-4-(hydroxymethyl)-N-(5-(methoxymethyl)quinolin-2-yl)-3-methylbenzo[b]thiophene-2-carboxamide]
24 | 1.1 | COCc1ccc(C(C)=O)c2sc(C(=O)Nc3cc(N4CCOCC4)c4ccccc4n3)c(C)c12 [Example 56, 7-Acetyl-4-(methoxymethyl)-3-methyl-N-(4-morpholinoquinolin-2-yl)benzo[b]thiophene-2-carboxamide]
25 | 0.11 | COCc1ccc(C(C)=O)c2sc(C(=O)Nc3ccc4c(C(=O)O)cccc4n3)c(C)c12 [Example 93, 2-(7-Acetyl-4-(methoxymethyl)-3-methylbenzo[b]thiophene-2-carboxamido)quinoline-5-carboxylic acid]
